Counter-ions that a name gives are not always drawn.
Columns and labels:
[1] = system: thermal allodynia after administration of oxaliplatin (OXA); test: Thermal (cold) allodynia, tail withdrawal time in cold bath at 10° C, model of neuropathy caused by oxaliplatin; assay type: in vivo, rat; settings: for reversal of the allodynia (tail withdrawal time versus before the procedure): oxaliplatin 6 mg/kg i.p.
Source text: The effects of 4-{3-[cis-hexahydrocyclopenta[c]pyrrol-2(1H)-yl]propoxy}benzamide and of two reference treatments for neuropathic pain (gabapentin and pregabalin) were studied on the thermal allodynia which occurs in rats after administration of oxaliplatin (OXA). Oxaliplatin is a synthetic anticancer medication from the group of agents derived from platinum, especially used in the treatment of cancers of the colon and rectum.
In the rat, acute administration of oxaliplatin specifically causes cold hyperalgesia and allodynia in the subsequent 24 hours, which lasts for several days. This animal model therefore closely mimics the painful symptoms observed in humans after infusion of oxaliplatin, especially the rapid appearance of intense sensory disturbances caused by cold, of the hyperalgesic and allodynic type (Ling et al. Toxicology. 2007; 234(3):176-84).
The results of this study confirm that, 36 hours after acute intraperitoneal administration of oxaliplatin (6 mg/kg), the rats develop cold allodynia, reflected by very rapid withdrawal of their tail when it is placed in a cold bath at 10° C. Indeed, this withdrawal time is, on average, half as long as that of the rats before administration of oxaliplatin (FIG. 3).

[2] = system: mechanical hyperalgesia caused by chronic constriction (CCI) of the sciatic nerve; test: Mechanical hyperalgesia (vocalisation threshold) in CCI model, compound and agomelatine on their own or in association; assay type: in vivo, rat; settings: every day for 5 days, S 0.3 mg of base/kg per os, agomelatine 10 mg/kg i.p., alone or in association
Procedure: The effects of 4-{3-[cis-hexahydrocyclopenta[c]pyrrol-2(1H)-yl]propoxy}benzamide and agomelatine, administered on their own or in association, were studied on the mechanical hyperalgesia caused in the rat by chronic constriction (CCI) of the sciatic nerve (see Example B).
The vocalisation threshold was measured in the animals every day for 5 days, before and 45 minutes after the administration of 4-{3-[cis-hexahydrocyclopenta[c]pyrrol-2(1H)-yl]-propoxy}benzamide hydrochloride at a dose of 0.3 mg of base/kg per os (the compound being referred to as S in FIG. 4) and agomelatine at a dose of 10 mg/kg i.p., on their own or in association.

[3] = system: mechanical hyperalgesia caused by chronic constriction (CCI) of the sciatic nerve; test: Mechanical hyperalgesia (vocalisation threshold) in model of neuropathy caused by chronic constriction (CCI) of the sciatic nerve; assay type: in vivo, rat; settings: for reversal of the hyperalgesia (vocalisation threshold versus before the procedure): after 4 days of chronic treatment
Source text: The effects of 4-{3-[cis-hexahydrocyclopenta[c]pyrrol-2(1H)-yl]propoxy}benzamide and of gabapentin were studied on the mechanical hyperalgesia caused in the rat by chronic constriction (CCI) of the sciatic nerve.
This model of post-traumatic neuropathic pain closely reproduces the symptoms of neuropathic pain which can be observed in humans, namely mechanical and thermal hyperalgesia, mechanical allodynia and spontaneous pain (Bennett and Xie, Pain, 1988, 33(1):87-107; Munger et al., Exp Neurol, 1992, 118(2):204-14; Kim et al., Brain Res, 1997, 113(2):200-6.).

[4] = system: model of diabetic neuropathy caused by streptozocin (STZ); test: Mechanical hyperalgesia (paw pressure vocalisation threshold) in model of diabetic neuropathy caused by streptozocin; assay type: in vivo, rat; settings: for effect of reference treatments compared with the compound: STZ rats
Procedure: The effects of 4-{3-[cis-hexahydrocyclopenta[c]pyrrol-2(1H)-yl]propoxy}benzamide and of two reference treatments for neuropathic pain (gabapentin and pregabalin) were studied in the rat, in the model of diabetic neuropathy caused by streptozocin (STZ).
In rats, administration of high-dose STZ (>35 mg/kg) causes diabetes which is similar to hyperglycaemic diabetes mellitus in humans. This is brought about by histopathological changes in the beta cells of islets of Langerhans and is associated with neuropathic pain. This pain is made manifest especially by mechanical hyperalgesia which can be attested by the lowering of the animal's vocalisation threshold when an increasing pressure is applied to the paw (Courteix et al., Pain, 1993, 53(1):81-8). During the test, a weight is placed on the rat's paw; its weight (in grams) increases until the animal vocalises. In this experiment, 21 days after the intraperitoneal injection of STZ (72 mg/kg), the rats develop diabetes characterised especially by hyperglycaemia (controlled during the experiment by injection of insulin) and associated with mechanical hyperalgesia. Indeed, the vocalisation threshold of the rats is lowered by half compared to the threshold which those animals had prior to injection of STZ (FIG. 1).

[5] = system: anxiety associated with the neuropathic pain caused by chronic constriction (CCI) of the sciatic nerve; test: Anxiety associated with neuropathic pain caused by CCI (time in open parts of cylindrical corridor); assay type: in vivo; settings: CCI rat, 4 weeks after constriction
Procedure: The effects of 4-{3-[cis-hexahydrocyclopenta[c]pyrrol-2(1H)-yl]propoxy}benzamide were studied on the anxiety associated with the neuropathic pain caused by chronic constriction (CCI) of the sciatic nerve in the rat.
In this study, the rats are placed for 5 minutes in a cylindrical corridor which has two parts closed off by a wall and two opposite parts which are open. The test creates a conflict between the rodent's natural desire to explore and its fear of open spaces which make it vulnerable to predators. Anxiety is measured in this test by the time spent by the rat in exploring the open parts of the cylindrical corridor (Bleickardt et al. Psychopharmacology (Berl), 2009, 202(4):711-8; Alba-Delgado et al. Biol. Psychiatry, 2013, 73(1):54-62).

[6] = system: depression associated with the neuropathic pain caused by CCI; test: Depression associated with neuropathic pain caused by CCI (duration of immobility in cylinder filled with water); assay type: in vivo; settings: CCI rat, 4 weeks after constriction
Procedure: The effects of 4-{3-[cis-hexahydrocyclopenta[c]pyrrol-2(1H)-yl]propoxy}benzamide were studied on the depression associated with the neuropathic pain caused by CCI in the rat. In this study, the rat is placed for 5 minutes in a cylinder filled with water, out of which it is unable to climb. After struggling in the water, the animal becomes immobile, reflecting “behavioural despair”, which occurs when the animal realises that it will not be able to escape. Depressive behaviour is measured in this test by the duration of immobility.

[7] = Clinical acceptability profile; assay type: in vivo, human

With NC(=O)c1ccc(OCCCN2C[C@H]3CCC[C@H]3C2)cc1 [S, 4-{3-[cis-hexahydrocyclopenta[c]pyrrol-2(1H)-yl]propoxy}benzamide hydrochloride] the “anti-allodynic effect (tail withdrawal time, cold bath 10° C)” value ([1]; 36 hours after oxaliplatin 6 mg/kg i.p., 0.3 mg of base/kg per os, from D1, 1 hour after a single administration) was “significant anti-allodynic effect”, the “reversal of the allodynia (tail withdrawal time versus before the procedure)” value [1] was “complete reversal of the allodynia” and the “anti-hyperalgesic effect (vocalisation threshold), chronic administration” value [2] was “moderate anti-hyperalgesic effect”. For the same compound, the “anti-hyperalgesic effect (vocalisation threshold)” value ([3]; 12 days after CCI, 1 mg of base/kg per os) was “significant anti-hyperalgesic effect”, the “reversal of the hyperalgesia (vocalisation threshold versus before the procedure)” value [3] was “complete reversal of the hyperalgesia” and the “value of the vocalisation threshold relative to non-diabetic animals” value ([4]; 3 mg of base per kg per os, from the second day of administration) was “the same as that of non-diabetic animals”. For the same compound, the “vocalisation threshold compared to animals having been given the carrier” value ([4]; STZ 72 mg/kg i.p., 21 days after, 3 mg of base per kg per os) was “substantial and significant increase in the vocalisation threshold”.
For COc1ccc2cccc(CCNC(C)=O)c2c1 [agomelatine, reference compound], the “anti-hyperalgesic effect (vocalisation threshold), chronic administration” value [2] was “moderate and very inconstant anti-hyperalgesic effect”.
With CC(C)C[C@H](CN)CC(=O)O [pregabalin, reference compound] the “reversal of the allodynia (tail withdrawal time versus before the procedure)” value [1] was “rapid reversal is also observed” and the “effect of reference treatments compared with the compound” value [4] was “entirely comparable”.
With NCC1(CC(=O)O)CCCCC1 [gabapentin, reference compound] the “reversal of the allodynia (tail withdrawal time versus before the procedure)” value [1] was “rapid reversal is also observed”, the “reversal of the hyperalgesia (vocalisation threshold versus before the procedure)” value [3] was “reversal is also observed” and the “effect of reference treatments compared with the compound” value [4] was “entirely comparable”.
For NC(=O)c1ccc(OCCCN2C[C@H]3CCC[C@H]3C2)cc1 [4-{3-[cis-hexahydrocyclopenta[c]pyrrol-2(1H)-yl]-propoxy}benzamide], the “effects on the anxiety associated with the neuropathic pain” value [5] was “beneficial effects”, the “effects on the depression associated with the neuropathic pain” value [6] was “beneficial effects” and the “beneficial effect on vocalisation threshold over time” value ([4]; administered every day for 5 days) was “maintained over time”. The acceptability profile ([7]; healthy volunteers) was “good acceptability profile” and the acceptability profile ([7]; patients suffering from Alzheimer's disease) was “good acceptability profile”.

Reference: US20160051513A1, “USE OF 4-BENZAMIDE IN THE TREATMENT OF NEUROPATHIC PAIN” (LES LABORATOIRES SERVIER, priority 2013, published 2016)
